The structures appear in SMILES notation.

Consider 25 molecules from patent US9663543B2 (priority 2014, dated 2017).

Sequence of Human factor D (P00746 26-253 limits assumed): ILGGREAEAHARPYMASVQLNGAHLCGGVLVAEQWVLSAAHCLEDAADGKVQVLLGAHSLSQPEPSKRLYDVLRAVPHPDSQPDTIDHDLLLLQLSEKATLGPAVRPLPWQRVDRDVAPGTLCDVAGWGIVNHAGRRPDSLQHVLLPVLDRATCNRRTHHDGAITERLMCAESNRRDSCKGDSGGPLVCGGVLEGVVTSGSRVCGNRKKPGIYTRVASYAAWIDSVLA

The experiment concerns the target Human factor D (Homo sapiens (Human), UniProt P00746). It counts as biochemical.
One may read the IC50 as the concentration at which inhibition is half-maximal. As for `CCOP(=O)(c1ccccc1)c1ccc2c(C(C)=O)cn(CC(=O)N3C[C@H](F)C[C@H]3C(=O)NCc3cccc(Cl)c3F)c2c1` (stereo partly drawn) [Compound 23, ethyl 3-acetyl-1-(2-((2S,4R)-2-(3-chloro-2-fluorobenzylcarbamoyl)-4-fluoropyrrolidin-1-yl)-2-oxoethyl)-1H-indol-6-yl(phenyl)phosphinate], the concentration for half-maximal inhibition (IC50) is less than 1000 nM. `CCOP(=O)(OCC)c1ccc2c(C(C)=O)cn(CC(=O)N3C[C@H](F)C[C@H]3C(=O)NCc3cccc(Cl)c3F)c2c1` [Compound 1, diethyl 3-acetyl-1-(2-((2S,4R)-2-(3-chloro-2-fluorobenzylcarbamoyl)-4-fluoropyrrolidin-1-yl)-2-oxoethyl)-1H-indol-6-ylphosphonate] yielded a 50% inhibitory concentration (IC50) of less than 1000 nM. With `NC(=O)c1nn(CC(=O)N2C[C@H](F)C[C@H]2C(=O)NCc2cccc(Cl)c2F)c2cc(P(=O)(O)O)ccc12` [Compound 18, 3-carbamoyl-1-(2-((2S,4R)-2-(3-chloro-2-fluorobenzylcarbamoyl)-4-fluoropyrrolidin-1-yl)-2-oxoethyl)-1H-indazol-6-ylphosphonic acid], the half-maximal inhibitory concentration (IC50) is less than 1000 nM.

The molecule `CC(=O)c1cn(CC(=O)N2[C@@H]3CCC[C@@H]3C[C@H]2C(=O)NCc2cccc(Cl)c2F)c2cc(P(=O)(O)O)ccc12` [Compound 7, 3-acetyl-1-(2-((2S,3aR,6aR)-2-(3-chloro-2-fluorobenzylcarbamoyl)hexa-hydrocyclopenta[b]pyrrol-1(2H)-yl)-2-oxoethyl)-1H-indol-6-ylphosphonic acid] displayed a 50% inhibitory concentration (IC50) of less than 1000 nM.

In the case of `CC(=O)c1cn(CC(=O)N2C[C@H](F)C[C@H]2C(=O)NCc2cccc(Cl)c2F)c2cc(P(=O)(O)OCC(F)(F)F)ccc12` [Compound 29, 2,2,2-trifluoroethyl hydrogen 3-acetyl-1-(2-((2S,4R)-2-(3-chloro-2-fluorobenzylcarbamoyl)-4-fluoropyrrolidin-1-yl)-2-oxoethyl)-1H-indol-6-ylphosphonate], the 50% inhibitory concentration (IC50) was less than 1000 nM. Next, `CCOP(=O)(O)c1ccc2c(c1)c(C(C)=O)cn2CC(=O)N1C[C@H](F)C[C@H]1C(=O)NCc1cccc(Cl)c1F` [Compound 9, ethyl hydrogen 3-acetyl-1-(2-((2S,4R)-2-(3-chloro-2-fluorobenzylcarbamoyl)-4-fluoropyrrolidin-1-yl)-2-oxoethyl)-1H-indol-5-ylphosphonate]: more than 10000 nM; `CC(=O)c1cn(CC(=O)N2C[C@H](F)C[C@H]2C(=O)NCc2cccc(Cl)c2F)c2cc(P(=O)(OCC(F)(F)F)OCC(F)(F)F)ccc12` [Compound 19, bis(2,2,2-trifluoroethyl) 3-acetyl-1-(2-((2S,4R)-2-(3-chloro-2-fluorobenzylcarbamoyl)-4-fluoropyrrolidin-1-yl)-2-oxoethyl)-1H-indol-6-ylphosphonate]: less than 1000 nM; `COC(=O)c1cn(CC(=O)N2C[C@H](F)C[C@H]2C(=O)NCc2cccc(Cl)c2F)c2cc(P(=O)(O)O)ccc12` [Compound 14, 1-(2-((2S,4R)-2-(3-chloro-2-fluorobenzylcarbamoyl)-4-fluoropyrrolidin-1-yl)-2-oxoethyl)-3-(methoxycarbonyl)-1H-indol-6-ylphosphonic acid]: less than 1000 nM.

`CC(=O)c1cn(CC(=O)N2C[C@H](F)C[C@H]2C(=O)NCc2cccc(Cl)c2F)c2cc(P(=O)(OCOC(=O)C(C)(C)C)OCOC(=O)C(C)(C)C)ccc12` [Compound 26, ((3-acetyl-1-(2-((2S,4R)-2-(3-chloro-2-fluorobenzylcarbamoyl)-4-fluoropyrrolidin-1-yl)-2-oxoethyl)-1H-indol-6-yl)phosphoryl)bis(oxy)bis (methylene) bis(2,2-dimethylpropanoate)] showed an IC50 of less than 1000 nM. Next, `CCCCOP(=O)(OCCCC)c1ccc2c(C(C)=O)cn(CC(=O)N3C[C@H](F)C[C@H]3C(=O)NCc3cccc(Cl)c3F)c2c1` [Compound 20, dibutyl 3-acetyl-1-(2-((2S,4R)-2-(3-chloro-2-fluorobenzylcarbamoyl)-4-fluoropyrrolidin-1-yl)-2-oxoethyl)-1H-indol-6-ylphosphonate]: less than 1000 nM; `CCOP(=O)(OCC)c1ccc2c(C(=O)OC)cn(CC(=O)N3C[C@H](F)C[C@H]3C(=O)NCc3cccc(Cl)c3F)c2c1` [Compound 13, methyl 1-(2-((2S,4R)-2-(3-chloro-2-fluorobenzylcarbamoyl)-4-fluoropyrrolidin-1-yl)-2-oxoethyl)-6-(diethoxyphosphoryl)-1H-indole-3-carboxylate]: less than 1000 nM; `CCOP(=O)(OCOC(=O)OC(C)C)c1ccc2c(C(C)=O)cn(CC(=O)N3C[C@H](F)C[C@H]3C(=O)NCc3cccc(Cl)c3F)c2c1` (stereo partly drawn) [Compound 6, ((3-acetyl-1-(2-((2S,4R)-2-(3-chloro-2-fluorobenzylcarbamoyl)-4-fluoropyrrolidin-1-yl)-2-oxoethyl)-1H-indol-6-yl)(ethoxy)phosphoryloxy) methyl isopropyl carbonate]: less than 1000 nM.

The molecule `CC(=O)c1cn(CC(=O)N2C[C@H](F)C[C@H]2C(=O)NCc2cccc(Cl)c2F)c2cc(P(=O)(OCOC(=O)OC(C)C)OCOC(=O)OC(C)C)ccc12` [Compound 4, ((3-acetyl-1-(2-((2S,4R)-2-(3-chloro-2-fluorobenzylcarbamoyl)-4-fluoropyrrolidin-1-yl)-2-oxoethyl)-1H-indol-6-yl)phosphoryl)bis(oxy)bis (methylene) isopropyl dicarbonate] registered an IC50 of less than 1000 nM. Next, `CC(=O)c1cn(CC(=O)N2C[C@H](F)C[C@H]2C(=O)NCc2cccc(Cl)c2F)c2cc(P(=O)(O)O)c(F)cc12` [Compound 31, 3-acetyl-1-(2-((2S,4R)-2-(3-chloro-2-fluorobenzylcarbamoyl)-4-fluoropyrrolidin-1-yl)-2-oxoethyl)-5-fluoro-1H-indol-6-ylphosphonic acid]: less than 1000 nM; `CCOP(=O)(OCC)c1ccc2c(c1)c(C(C)=O)cn2CC(=O)N1C[C@H](F)C[C@H]1C(=O)NCc1cccc(Cl)c1F` [Compound 8, diethyl 3-acetyl-1-(2-((2S,4R)-2-(3-chloro-2-fluorobenzylcarbamoyl)-4-fluoropyrrolidin-1-yl)-2-oxoethyl)-1H-indol-5-ylphosphonate]: less than 1000 nM. The value for `CC(=O)c1cn(CC(=O)N2C[C@H](F)C[C@H]2C(=O)NCc2cccc(Cl)c2F)c2cc(P(=O)(O)O)ccc12` [Compound 3, 3-acetyl-1-(2-((2S,4R)-2-(3-chloro-2-fluorobenzylcarbamoyl)-4-fluoropyrrolidin-1-yl)-2-oxoethyl)-1H-indol-6-ylphosphonic acid] was less than 1000 nM. Next, `CCOP(=O)(CC)c1ccc2c(C(C)=O)cn(CC(=O)N3C[C@H](F)C[C@H]3C(=O)NCc3cccc(Cl)c3F)c2c1` (stereo partly drawn) [Compound 24, ethyl 3-acetyl-1-(2-((2S,4R)-2-(3-chloro-2-fluorobenzylcarbamoyl)-4-fluoropyrrolidin-1-yl)-2-oxoethyl)-1H-indol-6-yl(ethyl)phosphinate]: less than 1000 nM; `CCOP(=O)(OCC)c1ccc2c(C(N)=O)cn(CC(=O)N3C[C@H](F)C[C@H]3C(=O)NCc3cccc(Cl)c3F)c2c1` [Compound 15, diethyl 3-carbamoyl-1-(2-((2S,4R)-2-(3-chloro-2-fluorobenzylcarbamoyl)-4-fluoropyrrolidin-1-yl)-2-oxoethyl)-1H-indol-6-ylphosphonate]: less than 1000 nM. `CCOP(=O)(OCC)c1cc2c(cc1F)c(C(C)=O)cn2CC(=O)N1C[C@H](F)C[C@H]1C(=O)NCc1cccc(Cl)c1F` [Compound 30, diethyl 3-acetyl-1-(2-((2S,4R)-2-(3-chloro-2-fluorobenzylcarbamoyl)-4-fluoropyrrolidin-1-yl)-2-oxoethyl)-5-fluoro-1H-indol-6-ylphosphonate] displayed a concentration for half-maximal inhibition (IC50) of less than 1000 nM.

`CCCCOP(=O)(O)c1ccc2c(C(C)=O)cn(CC(=O)N3C[C@H](F)C[C@H]3C(=O)NCc3cccc(Cl)c3F)c2c1` [Compound 21, butyl hydrogen 3-acetyl-1-(2-((2S,4R)-2-(3-chloro-2-fluorobenzylcarbamoyl)-4-fluoropyrrolidin-1-yl)-2-oxoethyl)-1H-indol-6-ylphosphonate]: the IC50 is less than 1000 nM. Next, `CCOP(=O)(O)c1ccc2c(C(C)=O)cn(CC(=O)N3C[C@H](F)C[C@H]3C(=O)NCc3cccc(Cl)c3F)c2c1` [Compound 2, ethyl hydrogen 3-acetyl-1-(2-((2S,4R)-2-(3-chloro-2-fluorobenzylcarbamoyl)-4-fluoropyrrolidin-1-yl)-2-oxoethyl)-1H-indol-6-ylphosphonate]: less than 1000 nM. `CC(=O)c1cn(CC(=O)N2C[C@H](F)C[C@H]2C(=O)NCc2cccc(Cl)c2F)c2cc(P(=O)(O)OCOC(=O)OC(C)C)ccc12` [Compound 22, ((3-acetyl-1-(2-((2S,4R)-2-(3-chloro-2-fluorobenzylcarbamoyl)-4-fluoropyrrolidin-1-yl)-2-oxoethyl)-1H-indol-6-yl)(hydroxy)phosphoryloxy) methyl isopropyl carbonate] showed an IC50 of less than 1000 nM.

In the case of `CCOP(=O)(OCC)c1ccc2c(C(=O)O)nn(CC(=O)N3C[C@H](F)C[C@H]3C(=O)NCc3cccc(Cl)c3F)c2c1` [Compound 12, 1-(2-((2S,4R)-2-(3-chloro-2-fluorobenzylcarbamoyl)-4-fluoropyrrolidin-1-yl)-2-oxoethyl)-6-(diethoxyphosphoryl)-1H-indazole-3-carboxylic acid], the 50% inhibitory concentration (IC50) was more than 10000 nM. With `CCOC(=O)c1nn(CC(=O)N2C[C@H](F)C[C@H]2C(=O)NCc2cccc(Cl)c2F)c2cc(P(=O)(OCC)OCC)ccc12` [Compound 11, ethyl 1-(2-((2S,4R)-2-(3-chloro-2-fluorobenzylcarbamoyl)-4-fluoropyrrolidin-1-yl)-2-oxoethyl)-6-(diethoxyphosphoryl)-1H-indazole-3-carboxylate], the IC50 is more than 10000 nM. With `CCOP(=O)(OCC)c1ccc2c(C(N)=O)nn(CC(=O)N3C[C@H](F)C[C@H]3C(=O)NCc3cccc(Cl)c3F)c2c1` [Compound 17, diethyl 3-carbamoyl-1-(2-((2S,4R)-2-(3-chloro-2-fluorobenzylcarbamoyl)-4-fluoropyrrolidin-1-yl)-2-oxoethyl)-1H-indazol-6-ylphosphonate], the IC50 is less than 1000 nM.
